Results on four molecules are retold here after patent US20210400970A1, “COMPOSITIONS COMPRISING PYRIDINE CARBOXYLATE HERBICIDES AND MICROTUBULE ASSEMBLY INHIBITOR HERBICIDES” (priority 2018, published 2021).

What all share (assay type): in vivo
Conditions in all cases: 20-22 d

Assay [1] concerns Brassica napus (spring rape, BRSNN). Put plainly: Greenhouse post-emergence herbicidal effect on spring rape. On the procedure: (§1) Seeds of the desired test plant species were planted in a 90:10% v/v (volume/volume) mixture of PRO-MIX® BX (Premier Tech Horticulture, Quakertown, Pa., USA) and PROFILE® GREENS GRADE™ (Profile Products LLC, Buffalo Grove, Ill., USA) planting mixture, which typically has a pH of 5.2 to 6.2 and an organic matter content of at least 50 percent, in plastic pots with a surface area of 103.2 square centimeters (cm^2). […] The plants were grown for 7-36 days (d) in a greenhouse with an approximate 14-hour (h) photoperiod which was maintained at about 23° C. during the day and 22° C. during the night. Nutrients and water were added on a regular basis and supplemental lighting was provided with overhead metal halide 1000-Watt lamps as necessary. The plants were employed for testing when they reached the second or third true leaf stage.
(§2) Emulsifiable concentrates of each of each pyridine carboxylate herbicide (Compound A or Compound B) were prepared at 100 grams acid equivalent per liter (g ae/L). The emulsifiable concentrates also included a safener, cloquintocet-mexyl, at 120 grams active ingredient per liter (g ai/L). An aliquot of each emulsifiable concentrate was placed in a 25 mL glass vial and diluted with an aqueous mixture of 1.25% (v/v) ACTIROB® B esterified rapeseed oil (Bayer Crop Science, Research Triangle Park, NC, USA) or MSO® Concentrate with LECI-TECH® methylated soybean oil (Loveland Products, Loveland, Colo., USA) to obtain concentrated stock solutions at the highest application rate for each herbicide, based upon a 12 milliliter (mL) application volume at a rate of 187 liters per hectare (L/ha). The concentrated stock solutions were further diluted with an aqueous mixture of 1.25% v/v ACTIROB® B or MSO® Concentrate with LECI-TECH® to obtain stock solutions at reduced application rates for each herbicide. Spray solutions of the herbicide combinations (Compound A or Compound B plus the MAI herbicide) were prepared by adding weighed amounts or aliquots of the MAI herbicide to the stock solutions of Compound A or Compound B to form 12-mL spray solutions in two-way combinations.
(§3) The spray solutions were applied to the plant material with an overhead Mandel track sprayer equipped with 8002E nozzles calibrated to deliver 187 L/ha over an application area of 0.503 square meters (m^2) at a spray height of 18 inches (43 centimeters (cm)) above the average plant canopy. Control plants were sprayed in the same manner with the solvent blank. All pyridine carboxylate herbicide (component a) application rates are given as “g ae/ha” and all MAI herbicide (component b) application rates are given as “g ai/ha.”
(§4) The treated plants and control plants were placed in a greenhouse as described above and watered by sub-irrigation to prevent wash-off of the test compounds. After 20-22 d, the condition of the test plants as compared with that of the control plants was determined visually and scored on a scale of 0 to 100 percent where 0 corresponds to no injury and 100 corresponds to complete kill.

The test system of assay [2] is Rumex obtusifolius (broad-leaf dock, RUMOB). The assay can be described thus: Greenhouse post-emergence herbicidal effect on broad-leaf dock. On the procedure: as §1, §2, §3, §4
Assay [3] relates to Glycine max (soybean, GLXMA). The assay can be described thus: Greenhouse post-emergence herbicidal effect on volunteer soybean. The method, then:
as §1, §2, §3, §4

Assay [4] has as its system Kochia scoparia (kochia, KCHSC). Put plainly: Greenhouse post-emergence herbicidal effect on kochia. On the procedure: as §1, §2, §3, §4
For assay [5], the system named is Lolium multiflorum (Italian ryegrass, LOLMU). Put plainly: Greenhouse post-emergence herbicidal effect on Italian ryegrass. The method, then: as §1, §2, §3, §4
Assay [6] relates to Cirsium arvense (Canada thistle, CIRAR). Put plainly: Greenhouse post-emergence herbicidal effect on Canada thistle. The method, then: as §1, §2, §3, §4
Assay [7] deals with Abutilon theophrasti (velvetleaf, ABUTH). Put plainly: Greenhouse post-emergence herbicidal effect on velvetleaf. On the procedure: as §1, §2
(§5) The spray solutions were applied to the plant material with an overhead Mandel track sprayer equipped with 8002E nozzles calibrated to deliver 187 L/ha over an application area of 0.503 square meters (m^2) at a spray height of 18 inches (43 centimeters (cm)) above the average plant canopy. […]
as §4

For assay [8], the system named is Ipomoea hederacea (ivyleaf morningglory, IPOHE). The assay can be described thus: Greenhouse post-emergence herbicidal effect on ivyleaf morningglory. The method, then: as §1, §2, §3, §4
Assay [9] concerns Digitaria sanguinalis (large crabgrass, DIGSA). The assay can be described thus: Greenhouse post-emergence herbicidal effect on large crabgrass. The method, then:
as §1, §2, §3, §4

For assay [10], the system named is Viola tricolor (wild pansy, VIOTR). Put plainly: Greenhouse post-emergence herbicidal effect on wild pansy. On the procedure:
as §1, §2, §3, §4

For assay [11], the system named is Polygonum convolvulus (wild buckwheat, POLCO). Put plainly: Greenhouse post-emergence herbicidal effect on wild buckwheat. The method, then:
as §1, §2, §5, §4

Assay [12] has as its system Echinochloa crus-galli (barnyard grass, ECHCG). The assay can be described thus: Greenhouse post-emergence herbicidal effect on barnyard grass. The method, then: as §1, §2, §3, §4
For assay [13], the system named is Setaria faberi (giant foxtail, SETFA). Put plainly: Greenhouse post-emergence herbicidal effect on giant foxtail. The method, then:
as §1, §2, §3, §4

For assay [14], the system named is Chenopodium album L. (common lambsquarters, CHEAL). The assay can be described thus: Greenhouse post-emergence herbicidal effect on common lambsquarters. On the procedure: as §1, §2, §5, §4
The mark [15] stands for this setting: MAI herbicide alone, 280 g ai/ha.
Setting [16] is: MAI herbicide alone, 560 g ai/ha.

For the molecule `N#CCOC(=O)c1nc(-c2ccc3cc[nH]c3c2F)c(F)c(N)c1Cl` [Compound A, cyanomethyl 4-amino-3-chloro-5-fluoro-6-(7-fluoro-1H-indol-6-yl)pyridine-2-carboxylate], the “Obs (% visual injury)” value in [1] (Compound A alone, 7.5 g ae/ha) is 73%; in assay [1] (Compound A alone, 10 g ae/ha), 83%; in assay [2] (Compound A alone, 7.5 g ae/ha), 8%; in [2] (Compound A alone, 10 g ae/ha), 10%; in [3] (Compound A alone, 7.5 g ae/ha) it was 93%; in assay [3] (Compound A alone, 10 g ae/ha), 95%. Further, the “Obs (% visual injury)” value is given as 60% in assay [4] (Compound A alone, 7.5 g ae/ha); 65% in [4] (Compound A alone, 10 g ae/ha); 0% in assay [5] (Compound A alone, 7.5 g ae/ha); 0% in assay [5] (Compound A alone, 10 g ae/ha); 23% in [6] (Compound A alone, 7.5 g ae/ha); 20% in assay [6] (Compound A alone, 10 g ae/ha). Moreover, the “Obs (% visual injury)” value is 68% in [7] (Compound A alone, 7.5 g ae/ha); 78% in assay [7] (Compound A alone, 10 g ae/ha); 3% in assay [8] (Compound A alone, 7.5 g ae/ha); 8% in [8] (Compound A alone, 10 g ae/ha); 45% in assay [9] (Compound A alone, 7.5 g ae/ha); 25% in assay [9] (Compound A alone, 10 g ae/ha). The “Obs (% visual injury)” value in assay [10] (Compound A alone, 7.5 g ae/ha) is 10%; in [10] (Compound A alone, 10 g ae/ha), 18%; in [11] (Compound A alone, 7.5 g ae/ha), 75%; in [11] (Compound A alone, 10 g ae/ha), 70%; in assay [12] (Compound A alone, 7.5 g ae/ha), 73%; in [12] (Compound A alone, 10 g ae/ha), 78%. Also, the “Obs (% visual injury)” value is on record as 70% in assay [13] (Compound A alone, 7.5 g ae/ha); 70% in assay [13] (Compound A alone, 10 g ae/ha); 97% in assay [14] (Compound A alone, 7.5 g ae/ha); 93% in assay [14] (Compound A alone, 10 g ae/ha).

In the case of `CSC(=O)c1c(C(F)F)nc(C(F)(F)F)c(C(=O)SC)c1CC(C)C` [Dithiopyr], the “Obs (% visual injury)” value was found to be 58% in [1] (setting [15]); 5% in assay [2] (setting [15]); 13% in assay [3] (setting [15]); 15% in assay [4] (setting [15]); 0% in [5] (setting [15]); 0% in assay [6] (setting [15]). For the same molecule, the “Obs (% visual injury)” value in [7] (setting [15]) stood at 40%; in assay [8] (setting [15]), 30%; in assay [9] (setting [15]), 33%; in [10] (setting [15]), 0%; in assay [11] (setting [15]) it was 0%; in assay [12] (setting [15]) it was 0%. Also, the “Obs (% visual injury)” value worked out at 0% in [13] (setting [15]) and 10% in [14] (setting [15]).

With `CCC(CC)Nc1c([N+](=O)[O-])cc(C)c(C)c1[N+](=O)[O-]` [Pendimethalin], the “Obs (% visual injury)” value in assay [1] (setting [16]) was determined as 15%; in assay [2] (setting [16]), 0%; in assay [3] (setting [16]), 23%; in [4] (setting [16]), 18%; in assay [5] (setting [16]), 0%; in assay [6] (setting [16]), 5%. Further, the “Obs (% visual injury)” value in [8] (setting [16]) came out at 3%; in [9] (setting [16]) it was 15%; in assay [10] (setting [16]) it was 0%; in [11] (setting [16]), 0%; in assay [12] (setting [16]) it was 0%; in [13] (setting [16]), 0%.

Regarding `C#CC(C)(C)NC(=O)c1cc(Cl)cc(Cl)c1` [Propyzamide], the “Obs (% visual injury)” value is reported as 0% in assay [1] (setting [15]); 0% in [2] (setting [15]); 23% in assay [3] (setting [15]); 18% in assay [4] (setting [15]); 0% in assay [5] (setting [15]); 0% in [6] (setting [15]). Further, the “Obs (% visual injury)” value in assay [7] (setting [15]) was 5%; in assay [8] (setting [15]) it was 3%; in assay [9] (setting [15]) it was 0%; in assay [10] (setting [15]), 0%; in assay [12] (setting [15]), 0%; in [13] (setting [15]) it was 0%. For the same molecule, the “Obs (% visual injury)” value in assay [14] (setting [15]) is given as 0%.
